Assay results from US20090209577A1, “Novel Triazolopyridine Compounds” (PFIZER INC., priority 2004, published 2009).
Where a name gives a salt, the structure may show the parent alone.

Biological target: T1, human p38 kinase alpha (Homo sapiens, UniProt Q16539)
T1 construct: The coding region of the human p38a cDNA was obtained by PCR-amplification from RNA isolated from the human monocyte cell line THP.1; made in house; host or cells: E. coli DH10B
Experiment: p38 kinase in vitro assay (PHAS-I / 32P-ATP format or EGFRP / 33P-ATP format)
Type: biochemical
Conditions: activated human p38 kinase alpha, 50 μM unlabeled ATP; two assay formats, table does not say which
Procedure: The ability of compounds to inhibit human p38 kinase alpha was evaluated using two in vitro assay methods. In the first method, activated human p38 kinase alpha phosphorylates a biotinylated substrate, PHAS-I (phosphorylated heat and acid stable protein-insulin inducible), in the presence of gamma ^32P-ATP (^32P-ATP). PHAS-I was biotinylated prior to the assay and provides a means of capturing the substrate, which is phosphorylated during the assay. p38 Kinase was activated by MKK6. Compounds were tested in 10 fold serial dilutions over the range of 100 μM to 0.001 μM using 1% DMSO. Each concentration of inhibitor was tested in triplicate.
All reactions were carried out in 96 well polypropylene plates. Each reaction well contained 25 mM HEPES pH 7.5, 10 mM magnesium acetate and 50 μM unlabeled ATP. Activation of p38 was required to achieve sufficient signal in the assay. Biotinylated PHAS-1 was used at 1-2 μg per 50 μl reaction volume, with a final concentration of 1.5 μM. Activated human p38 kinase alpha was used at 1 μg per 50 μl reaction volume representing a final concentration of 0.3 μM. Gamma ^32P-ATP was used to follow the phosphorylation of PHAS-1. ^32P-ATP has a specific activity of 3000 Ci/mmol and was used at 1.2 μCi per 50 μl reaction volume. The reaction proceeded either for one hour or overnight at 30° C.
Following incubation, 20 μl of reaction mixture was transferred to a high capacity streptavidin coated filter plate (SAM-streptavidin-matrix, Promega) prewetted with phosphate buffered saline. The transferred reaction mix was allowed to contact the streptavidin membrane of the Promega plate for 1-2 minutes. Following capture of biotinylated PHAS-1 with ^32P incorporated, each well was washed to remove unincorporated ^32P-ATP three times with 2M NaCl, three washes of 2M NaCl with 1% phosphoric, three washes of distilled water and finally a single wash of 95% ethanol. Filter plates were air-dried and 20 μl of scintillant was added. The plates were sealed and counted.
A second assay format was also employed that is based on p38 kinase alpha induced phosphorylation of EGFRP (epidermal growth factor receptor peptide, a 21 mer) in the presence ^33P-ATP. Compounds were tested in 10 fold serial dilutions over the range of 100 μM to 0.001 μM in 1% DMSO. Each concentration of inhibitor was tested in triplicate. Compounds were evaluated in 50 μl reaction volumes in the presence of 25 mM Hepes pH 7.5, 10 mM magnesium acetate, 4% glycerol, 0.4% bovine serum albumin, 0.4 mM DTT, 50 μM unlabeled ATP, 25 μg EGFRP (200 μM), and 0.05 μCi ^33P-ATP. Reactions were initiated by addition of 0.09 μg of activated, purified human GST-p38 kinase alpha. Activation was carried out using GST-MKK6 (5:1, p38:MKK6) for one hour at 30° C. in the presence of 50 μM ATP. Following incubation for 60 minutes at room temperature, the reaction was stopped by addition of 150 μl of AG 1×8 resin in 900 mM sodium formate buffer, pH 3.0 (1 volume resin to 2 volumes buffer). The mixture was mixed three times with pipetting and the resin was allowed to settle. A total of 50 μl of clarified solution head volume was transferred from the reaction wells to Microlite-2 plates. 150 μl of Microscint 40 was then added to each well of the Microlite plate, and the plate was sealed, mixed, and counted.
The above protocol assays were used to determine the IC50 values for compounds in Examples 1-71 above.

T1 sequence (Q16539 whole entry): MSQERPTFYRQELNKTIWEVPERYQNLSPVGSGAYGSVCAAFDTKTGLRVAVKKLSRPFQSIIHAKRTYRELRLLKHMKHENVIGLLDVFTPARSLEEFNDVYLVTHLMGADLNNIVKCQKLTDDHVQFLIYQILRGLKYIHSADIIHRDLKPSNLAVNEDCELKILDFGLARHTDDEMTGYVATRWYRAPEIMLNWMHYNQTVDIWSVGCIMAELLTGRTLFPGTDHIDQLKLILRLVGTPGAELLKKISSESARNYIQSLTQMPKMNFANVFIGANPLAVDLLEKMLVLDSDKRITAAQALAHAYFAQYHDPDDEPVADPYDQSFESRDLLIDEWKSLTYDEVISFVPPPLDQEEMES

Structure (SMILES) | IC50 [µM]
C=Cc1ccc(-c2nnc3ccc(Sc4ccc(F)cc4F)cn23)cc1 [Example 57, 6-[(2,4-difluorophenyl)thio]-3-(4-vinylphenyl)[1,2,4]triazolo[4,3-a]pyridine] | 0.181
O=C(O)c1ccc(-c2nnc3ccc(Cc4ccc(F)cc4F)cn23)cc1 [Example 59, 4-[6-(2,4-difluorobenzyl)[1,2,4]triazolo[4,3-a]pyridin-3-yl]benzoic acid] | > 100
CC(C)c1nnc2ccc([S+]([O-])c3ccc(F)cc3F)cn12 (stereo not shown) [Example 60, 6-[(2,4-difluorophenyl)sulfinyl]-3-isopropyl[1,2,4]triazolo[4,3-a]pyridine] | 9.68
CC(C)c1nnc2ccc(S(=O)(=O)c3ccc(F)cc3F)cn12 [Example 61, 6-[(2,4-difluorophenyl)sulfonyl]-3-isopropyl[1,2,4]triazolo[4,3-a]pyridine] | > 100
OCC(O)c1ccc(-c2nnc3ccc(Cc4ccc(F)cc4F)cn23)cc1 (stereo not shown) [Example 62, 1-{4-[6-(2,4-difluorobenzyl)[1,2,4]triazolo[4,3-a]pyridin-3-yl]phenyl}ethane-1,2-diol trifluoroacetate] | 0.443
CC(C)c1nnc2ccc(Cc3ccc(F)cc3)cn12 [Example 69, 6-(4-fluorobenzyl)-3-isopropyl[1,2,4]triazolo[4,3-a]pyridine] | 2.5
CC(C)C(=O)c1ccc2nnc(C(C)C)n2c1 [Example 71, 1-(3-isopropyl[1,2,4]triazolo[4,3-a]pyridin-6-yl)-2-methylpropan-1-one] | 99.1

Results, then the molecule that gave them:

IC50 [µM] | Structure (SMILES)
0.141 | COC(=O)c1cccc(-c2nnc3ccc(Cc4ccc(F)cc4F)cn23)c1 [Example 58, methyl 3-[6-(2,4-difluorobenzyl)[1,2,4]triazolo[4,3-a]pyridin-3-yl]benzoate]
0.0546 | CC(C)(C)c1nnc2ccc(Sc3c(Cl)cccc3Cl)cn12 [Example 63, 3-tert-butyl-6-[(2,6-dichlorophenyl)thio][1,2,4]triazolo[4,3-a]pyridine]
0.181 | COC(=O)c1cccc(-c2nnc3ccc(Sc4ccc(F)cc4F)cn23)c1 [Example 64A, methyl 3-{6-[(2,4-difluorophenyl)thio][1,2,4]triazolo[4,3-a]pyridin-3-yl}benzoate]
7.42 | O=C(O)c1cccc(-c2nnc3ccc(Sc4ccc(F)cc4F)cn23)c1 [Example 64B, 3-{6-[(2,4-difluorophenyl)thio][1,2,4]triazolo[4,3-a]pyridin-3-yl}benzoic acid]
1.13 | COC(=O)c1cccc(-c2nnc3ccc(C(O)c4ccc(F)cc4F)cn23)c1 (stereo not shown) [Example 65, methyl 3-{6-[(2,4-difluorophenyl)(hydroxy)methyl][1,2,4]triazolo[4,3-a]pyridin-3-yl}benzoate]
> 100 | O=C(O)c1cccc(-c2nnc3ccc(C(=O)c4ccc(F)cc4F)cn23)c1 [Example 66, 3-[6-(2,4-difluorobenzoyl)[1,2,4]triazolo[4,3-a]pyridin-3-yl]benzoic acid]
0.699 | CC(C)c1nnc2ccc(Cc3ccccc3F)cn12 [Example 67, 6-(2-fluorobenzyl)-3-isopropyl[1,2,4]triazolo[4,3-a]pyridine]
5.26 | CC(C)c1nnc2ccc(Cc3cccc(F)c3)cn12 [Example 68, 6-(3-fluorobenzyl)-3-isopropyl[1,2,4]triazolo[4,3-a]pyridine]
0.122 | CC(C)(C)c1nnc2ccc(Cc3ccc(F)cc3F)cn12 [Example 70, 3-tert-butyl-6-(2,4-difluorobenzyl)[1,2,4]triazolo[4,3-a]pyridine]
